Assay results reported in ChEMBL document CHEMBL4316596, “Antimicrobial Peptides with High Proteolytic Resistance for Combating Gram-Negative Bacteria” (J Med Chem, 2019).
Converted amounts (≈) assume the structure as drawn. Positions of bridges follow the written chain, without caps; N, C: chain ends. Non-standard residues stand in square brackets, D forms with d. Residues, ends and D or L forms follow the SMILES beside them. *: point of attachment. X1 = CC[C@H](C)CCCCC(=O)*; Dab = NCC[C@H](N)C(=O)O

What was measured:
Pseudomonas aeruginosa [1] = test: Antimicrobial activity against Pseudomonas aeruginosa ATCC 27853 after 24 hrs by NCCLS-protocol based assay; assay type: functional; details: ATCC 27853, 24 h
Pseudomonas aeruginosa [2] = test: Bactericidal activity against Pseudomonas aeruginosa 26305 clinical isolates incubated for 4 hrs followed by culture spread on agar plates and cultured overnight; assay type: functional; details: Pseudomonas aeruginosa, 26305, 4 h; read-out: MBC>99.9
Pseudomonas aeruginosa [3] = test: Bactericidal activity against Pseudomonas aeruginosa PAO1 incubated for 4 hrs followed by culture spread on agar plates and cultured overnight; assay type: functional; details: PAO1, 4 h, read-out: MBC>99.9
Escherichia coli [4] = test: Antimicrobial activity against Escherichia coli K88 after 24 hrs by NCCLS-protocol based assay; assay type: functional; details: K88, 24 h
Escherichia coli [5] = test: Antimicrobial activity against Escherichia coli ATCC 25922 after 24 hrs by NCCLS-protocol based assay; assay type: functional; details: ATCC 25922, 24 h
Salmonella typhimurium [6] = test: Bactericidal activity against Salmonella typhimurium ATCC 14028 incubated for 4 hrs followed by culture spread on agar plates and cultured overnight; assay type: functional, Salmonella enterica subsp. enterica serovar Typhimurium; details: Salmonella enterica, ATCC 14028, 4 h; read-out: MBC>99.9
Pseudomonas aeruginosa [7] = test: Bactericidal activity against Pseudomonas aeruginosa 25349 clinical isolates incubated for 4 hrs followed by culture spread on agar plates and cultured overnight; assay type: functional; details: Pseudomonas aeruginosa, 25349, 4 h; read-out: MBC>99.9
Pseudomonas aeruginosa [8] = test: Bactericidal activity against Pseudomonas aeruginosa CICC 21625 clinical isolates incubated for 4 hrs followed by culture spread on agar plates and cultured overnight; assay type: functional; details: CICC 21625, 4 h, read-out: MBC>99.9
Escherichia coli [9] = test: Antimicrobial activity against Escherichia coli UB1005 after 24 hrs by NCCLS-protocol based assay; assay type: functional; details: UB1005, 24 h
Salmonella typhimurium [10] = test: Antimicrobial activity against Salmonella typhimurium C7731 after 24 hrs by NCCLS-protocol based assay; assay type: functional, Salmonella enterica subsp. enterica serovar Typhimurium; details: Salmonella enterica, C7731, 24 h
Pseudomonas aeruginosa [11] = test: Antimicrobial activity against Pseudomonas aeruginosa CICC 21625 clinical isolates after 24 hrs by NCCLS-protocol based assay; assay type: functional; details: CICC 21625, 24 h
Pseudomonas aeruginosa [12] = test: Bactericidal activity against Pseudomonas aeruginosa CICC 21630 clinical isolates incubated for 4 hrs followed by culture spread on agar plates and cultured overnight; assay type: functional; details: CICC 21630, 4 h, read-out: MBC>99.9
Acinetobacter baumannii [13] = test: Bactericidal activity against Acinetobacter baumannii incubated for 4 hrs followed by culture spread on agar plates and cultured overnight; assay type: functional; details: read-out: MBC>99.9
Pseudomonas aeruginosa [14] = test: Antimicrobial activity against Pseudomonas aeruginosa 26305 clinical isolates after 24 hrs by NCCLS-protocol based assay; assay type: functional; details: Pseudomonas aeruginosa, 26305, 24 h
Salmonella typhimurium [15] = test: Antimicrobial activity against Salmonella typhimurium ATCC 14028 after 24 hrs by NCCLS-protocol based assay; assay type: functional, Salmonella enterica subsp. enterica serovar Typhimurium; details: Salmonella enterica, ATCC 14028, 24 h
[16] = Bactericidal activity against Salmonella pullorum C7913 incubated for 4 hrs followed by culture spread on agar plates and cultured overnight; assay type: functional, Salmonella enterica subsp. enterica serovar Pullorum; details: Salmonella enterica, C7913, 4 h; read-out: MBC>99.9
Pseudomonas aeruginosa [17] = test: Antimicrobial activity against Pseudomonas aeruginosa 25349 clinical isolates after 24 hrs by NCCLS-protocol based assay; assay type: functional; details: Pseudomonas aeruginosa, 25349, 24 h
Salmonella typhimurium [18] = test: Bactericidal activity against Salmonella typhimurium C7731 incubated for 4 hrs followed by culture spread on agar plates and cultured overnight; assay type: functional, Salmonella enterica subsp. enterica serovar Typhimurium; details: Salmonella enterica, C7731, 4 h; read-out: MBC>99.9
Pseudomonas aeruginosa [19] = test: Antimicrobial activity against Pseudomonas aeruginosa CICC 21630 clinical isolates after 24 hrs by NCCLS-protocol based assay; assay type: functional; details: CICC 21630, 24 h
Escherichia coli [20] = test: Bactericidal activity against Escherichia coli K88 incubated for 4 hrs followed by culture spread on agar plates and cultured overnight; assay type: functional; details: K88, 4 h, read-out: MBC>99.9
Escherichia coli [21] = test: Antimicrobial activity against Escherichia coli 078 after 24 hrs by NCCLS-protocol based assay; assay type: functional; details: Escherichia coli, 078, 24 h
Escherichia coli [22] = test: Bactericidal activity against Escherichia coli 078 incubated for 4 hrs followed by culture spread on agar plates and cultured overnight; assay type: functional; details: Escherichia coli, 078, 4 h; read-out: MBC>99.9
Escherichia coli [23] = test: Antimicrobial activity against Escherichia coli K99 after 24 hrs by NCCLS-protocol based assay; assay type: functional; details: K99, 24 h
Pseudomonas aeruginosa [24] = test: Antimicrobial activity against Pseudomonas aeruginosa PAO1 after 24 hrs by NCCLS-protocol based assay; assay type: functional; details: PAO1, 24 h
Escherichia coli [25] = test: Bactericidal activity against Escherichia coli K99 incubated for 4 hrs followed by culture spread on agar plates and cultured overnight; assay type: functional; details: K99, 4 h, read-out: MBC>99.9
Escherichia coli [26] = test: Bactericidal activity against Escherichia coli ATCC 25922 incubated for 4 hrs followed by culture spread on agar plates and cultured overnight; assay type: functional; details: ATCC 25922, 4 h, read-out: MBC>99.9
Pseudomonas aeruginosa [27] = test: Bactericidal activity against Pseudomonas aeruginosa ATCC 27853 incubated for 4 hrs followed by culture spread on agar plates and cultured overnight; assay type: functional; details: ATCC 27853, 4 h, read-out: MBC>99.9
Acinetobacter baumannii [28] = test: Antimicrobial activity against Acinetobacter baumannii after 24 hrs by NCCLS-protocol based assay; assay type: functional
[29] = Antimicrobial activity against Salmonella pullorum C7913 after 24 hrs by NCCLS-protocol based assay; assay type: functional, Salmonella enterica subsp. enterica serovar Pullorum; details: Salmonella enterica, C7913, 24 h
Klebsiella pneumoniae [30] = test: Bactericidal activity against Klebsiella pneumoniae incubated for 4 hrs followed by culture spread on agar plates and cultured overnight; assay type: functional; details: read-out: MBC>99.9
Escherichia coli [31] = test: Bactericidal activity against Escherichia coli UB1005 incubated for 4 hrs followed by culture spread on agar plates and cultured overnight; assay type: functional; details: UB1005, 4 h, read-out: MBC>99.9
Klebsiella pneumoniae [32] = test: Antimicrobial activity against Klebsiella pneumoniae after 24 hrs by NCCLS-protocol based assay; assay type: functional

MIC95 (Pseudomonas aeruginosa [1]): 2 µM (≈ 2.41 µg/mL)
MIC95 (Escherichia coli [4]): 0.5 µM (≈ 0.602 µg/mL)
MIC95 (Escherichia coli [5]): 1 µM (≈ 1.2 µg/mL)
MIC95 (Escherichia coli [9]): 0.5 µM (≈ 0.602 µg/mL)
MIC95 (Salmonella typhimurium [10]): 2 µM (≈ 2.41 µg/mL)
MIC95 (Pseudomonas aeruginosa [11]): 4 µM (≈ 4.81 µg/mL)
MIC95 (Pseudomonas aeruginosa [14]): 4 µM (≈ 4.81 µg/mL)
MIC95 (Salmonella typhimurium [15]): 2 µM (≈ 2.41 µg/mL)
MIC95 (Pseudomonas aeruginosa [17]): 2 µM (≈ 2.41 µg/mL)
MIC95 (Pseudomonas aeruginosa [19]): 4 µM (≈ 4.81 µg/mL)
MIC95 (Escherichia coli [21]): 1 µM (≈ 1.2 µg/mL)
MIC95 (Escherichia coli [23]): 2 µM (≈ 2.41 µg/mL)
MIC95 (Pseudomonas aeruginosa [24]): 16 µM (≈ 19.3 µg/mL)
MIC95 (Acinetobacter baumannii [28]): 0.25 µM (≈ 0.301 µg/mL)
MIC95 [29]: 0.5 µM (≈ 0.602 µg/mL)
MIC95 (Klebsiella pneumoniae [32]): 4 µM (≈ 4.81 µg/mL)
SMILES: CC[C@H](C)CCCCC(=O)N[C@@H](CCN)C(=O)N[C@H](C(=O)N[C@@H](CCN)C(=O)N[C@H]1CCNC(=O)[C@H]([C@@H](C)O)NC(=O)[C@H](CCN)NC(=O)[C@H](CCN)NC(=O)[C@H](CC(C)C)NC(=O)[C@@H](Cc2ccccc2)NC(=O)[C@H](CCN)NC1=O)[C@@H](C)O (X1-[Dab]T[Dab][Dab][Dab][dF]L[Dab][Dab]T; lactam 4-C)
MBC (Pseudomonas aeruginosa [2]): 4 µM (≈ 4.81 µg/mL)
MBC (Pseudomonas aeruginosa [3]): 32 µM (≈ 38.5 µg/mL)
MBC (Salmonella typhimurium [6]): 4 µM (≈ 4.81 µg/mL)
MBC (Pseudomonas aeruginosa [7]): 4 µM (≈ 4.81 µg/mL)
MBC (Pseudomonas aeruginosa [8]): 8 µM (≈ 9.63 µg/mL)
MBC (Pseudomonas aeruginosa [12]): 8 µM (≈ 9.63 µg/mL)
MBC (Acinetobacter baumannii [13]): 0.25 µM (≈ 0.301 µg/mL)
MBC [16]: 1 µM (≈ 1.2 µg/mL)
MBC (Salmonella typhimurium [18]): 4 µM (≈ 4.81 µg/mL)
MBC (Escherichia coli [20]): 1 µM (≈ 1.2 µg/mL)
MBC (Escherichia coli [22]): 2 µM (≈ 2.41 µg/mL)
MBC (Escherichia coli [25]): 2 µM (≈ 2.41 µg/mL)
MBC (Escherichia coli [26]): 2 µM (≈ 2.41 µg/mL)
MBC (Pseudomonas aeruginosa [27]): 2 µM (≈ 2.41 µg/mL)
MBC (Klebsiella pneumoniae [30]): 8 µM (≈ 9.63 µg/mL)
MBC (Escherichia coli [31]): 1 µM (≈ 1.2 µg/mL)
